Earlier results on two molecules are cited in patent US12697312B2, “Methods and devices for treatment of eyelid ptosis” (priority 2022, dated 2026).

One data set deals with Müllers muscle. Particulars: by activating post synaptic neuromuscular junction and muscle contraction.
A further data set deals with dry eye. The note with it: eye drops containing retinyl palmitate 0.05 percent; Kim et al. (2009).

For `CNC[C@H](O)c1cccc(O)c1` [Phenylephrine], the “effect on the eyelid (ptosis)” value in the data set on Müllers muscle is recorded as “shown to lift the eyelid”. Turning to `CCCCCCCCCCCCCCCC(=O)OC/C=C(C)/C=C/C=C(C)/C=C/C1=C(C)CCCC1(C)C` [retinyl palmitate], the “treatment of dry eye (keratoconjunctivitis sicca)” value with dry eye is listed as “effective treatment for dry eye”.
